The subject of test [1] is Platelet. As to the kind of experiment: Antiaggregating activity in Homo sapiens (human) platelet rich plasma assessed as inhibition of arachidonic acid-induced platelet aggregation at 1 uM incubated for 4 min prior to arachidonic acid-induction measured for 5.5 min by turbidometric analysis. Format: functional, cell-free.
Test [2] concerns Platelet. Put plainly: Antiaggregating activity in Homo sapiens (human) platelet rich plasma assessed as inhibition of arachidonic acid-induced platelet aggregation at 2 uM incubated for 4 min prior to arachidonic acid-induction measured for 5.5 min by turbidometric analysis. The class given is functional, cell-free.
The nature of test [3]: Antiaggregating activity in Homo sapiens (human) platelet rich plasma assessed as inhibition of arachidonic acid-induced platelet aggregation at 0.5 uM incubated for 4 min prior to arachidonic acid-induction measured for 5.5 min by turbidometric analysis. Format: functional. More on the design: scale not given: the % may be the effect or the level left.
Test [4] is described as follows: Antiaggregating activity in Homo sapiens (human) platelet rich plasma assessed as adrenaline-induced platelet aggregation at 0.25 uM incubated for 4 min prior to adrenaline-induction measured for 5.5 min by turbidometric analysis (reference value: 65 to 100%). The class given is functional.
For test [5], the system named is Platelet. As to the kind of experiment: Antiaggregating activity in Homo sapiens (human) platelet rich plasma assessed as inhibition of adrenaline-induced platelet aggregation at 1 uM incubated for 4 min prior to adrenaline-induction measured for 5.5 min by turbidometric analysis. Format: functional, cell-free.
Test [6] has as its system Platelet. As to the kind of experiment: Antiaggregating activity in Homo sapiens (human) platelet rich plasma assessed as inhibition of ADP-induced platelet aggregation at 2 uM incubated for 4 min prior to ADP-induction measured for 5.5 min by turbidometric analysis. Format: functional, cell-free.
A short description of test [7]: Antiaggregating activity in Homo sapiens (human) platelet rich plasma assessed as ADP-induced platelet aggregation at 0.25 uM incubated for 4 min prior to ADP-induction measured for 5.5 min by turbidometric analysis (reference value: 54 to 88%). The class given is functional.
Test [8] in a line: Antiaggregating activity in Homo sapiens (human) platelet rich plasma assessed as inhibition of collagen-induced platelet aggregation at 0.25 uM incubated for 4 min prior to collagen-induction measured for 5.5 min by turbidometric analysis. Format: functional. More on the design: scale not given: the % may be the effect or the level left.
Test [9] relates to Platelet. Put plainly: Antiaggregating activity in Homo sapiens (human) platelet rich plasma assessed as inhibition of adrenaline-induced platelet aggregation at 2 uM incubated for 4 min prior to adrenaline-induction measured for 5.5 min by turbidometric analysis. The class given is functional, cell-free.
The nature of test [10]: Antiaggregating activity in Homo sapiens (human) platelet rich plasma assessed as ristocetin-induced platelet aggregation at 0.25 uM incubated for 4 min prior to ristocetin-induction measured for 5.5 min by turbidometric analysis (reference value: 65 to 99%). The class given is functional.
The subject of test [11] is Platelet. Put plainly: Antiaggregating activity in Homo sapiens (human) platelet rich plasma assessed as inhibition of collagen-induced platelet aggregation at 2 uM incubated for 4 min prior to collagen-induction measured for 5.5 min by turbidometric analysis. The class given is functional, cell-free.
Test [12] relates to Platelet. As to the kind of experiment: Antiaggregating activity in Homo sapiens (human) platelet rich plasma assessed as inhibition of ristocetin-induced platelet aggregation at 2 uM incubated for 4 min prior to ristocetin-induction measured for 5.5 min by turbidometric analysis. The class given is functional, cell-free.
For test [13], the system named is Platelet. Put plainly: Antiaggregating activity in Homo sapiens (human) platelet rich plasma assessed as inhibition of collagen-induced platelet aggregation at 1 uM incubated for 4 min prior to collagen-induction measured for 5.5 min by turbidometric analysis. Format: functional, cell-free.
Test [14] in a line: Antiaggregating activity in Homo sapiens (human) platelet rich plasma assessed as disaggregation of ADP-induced platelet aggregation at 1 uM incubated for 4 min prior to ADP-induction measured for 5.5 min by turbidometric analysis relative to control. The class given is functional.
The nature of test [15]: Antiaggregating activity in Homo sapiens (human) platelet rich plasma assessed as ristocetin-induced platelet aggregation at 1 uM incubated for 4 min prior to ristocetin-induction measured for 5.5 min by turbidometric analysis (reference value: 65 to 99%). The class given is functional.
Test [16] in a line: Antiaggregating activity in Homo sapiens (human) platelet rich plasma assessed as ADP-induced platelet aggregation at 1 uM incubated for 4 min prior to ADP-induction measured for 5.5 min by turbidometric analysis (reference value: 54 to 88%). The class given is functional.
The nature of test [17]: Antiaggregating activity in Homo sapiens (human) platelet rich plasma assessed as adrenaline-induced platelet aggregation at 2 uM incubated for 4 min prior to adrenaline-induction measured for 5.5 min by turbidometric analysis (reference value: 65 to 100%). Format: functional.
Test [18] is described as follows: Antiaggregating activity in Homo sapiens (human) platelet rich plasma assessed as collagen-induced platelet aggregation at 2 uM incubated for 4 min prior to collagen-induction measured for 5.5 min by turbidometric analysis (reference value: 50 to 98%). Format: functional.
A short description of test [19]: Antiaggregating activity in Homo sapiens (human) platelet rich plasma assessed as collagen-induced platelet aggregation at 1 uM incubated for 4 min prior to collagen-induction measured for 5.5 min by turbidometric analysis (reference value: 50 to 98%). The class given is functional.
The nature of test [20]: Antiaggregating activity in Homo sapiens (human) platelet rich plasma assessed as adrenaline-induced platelet aggregation at 1 uM incubated for 4 min prior to adrenaline-induction measured for 5.5 min by turbidometric analysis (reference value: 65 to 100%). Format: functional.
In test [21] the test system is Platelet. Put plainly: Antiaggregating activity in Homo sapiens (human) platelet rich plasma assessed as inhibition of collagen-induced platelet aggregation at 5 uM incubated for 4 min prior to collagen-induction measured for 5.5 min by turbidometric analysis. Format: functional, cell-free.
Test [22] can be described thus: Antiaggregating activity in Homo sapiens (human) platelet rich plasma assessed as ristocetin-induced platelet aggregation at 5 uM incubated for 4 min prior to ristocetin-induction measured for 5.5 min by turbidometric analysis (reference value: 65 to 99%). The class given is functional.
Test [23] in a line: Antiaggregating activity in Homo sapiens (human) platelet rich plasma assessed as ADP-induced platelet aggregation at 2 uM incubated for 4 min prior to ADP-induction measured for 5.5 min by turbidometric analysis (reference value: 54 to 88%). The class given is functional.
A short description of test [24]: Antiaggregating activity in Homo sapiens (human) platelet rich plasma assessed as arachidonic acid-induced platelet aggregation at 1 uM incubated for 4 min prior to arachidonic acid-induction measured for 5.5 min by turbidometric analysis (reference value: 55 to 100%). The class given is functional.
The nature of test [25]: Antiaggregating activity in Homo sapiens (human) platelet rich plasma assessed as disaggregation of arachidonic acid-induced platelet aggregation at 2 uM incubated for 4 min prior to arachidonic acid-induction measured for 5.5 min by turbidometric analysis relative to control. Format: functional.
Test [26] can be described thus: Antiaggregating activity in Homo sapiens (human) platelet rich plasma assessed as disaggregation of ADP-induced platelet aggregation at 5 uM incubated for 4 min prior to ADP-induction measured for 5.5 min by turbidometric analysis relative to control. Format: functional.
In test [27] the test system is Platelet. Put plainly: Antiaggregating activity in Homo sapiens (human) platelet rich plasma assessed as inhibition of adrenaline-induced platelet aggregation at 5 uM incubated for 4 min prior to adrenaline-induction measured for 5.5 min by turbidometric analysis. The class given is functional, cell-free.
Test [28] is described as follows: Antiaggregating activity in Homo sapiens (human) platelet rich plasma assessed as ristocetin-induced platelet aggregation at 2 uM incubated for 4 min prior to ristocetin-induction measured for 5.5 min by turbidometric analysis (reference value: 65 to 99%). Format: functional.
In test [29] the test system is Platelet. As to the kind of experiment: Antiaggregating activity in Homo sapiens (human) platelet rich plasma assessed as inhibition of arachidonic acid-induced platelet aggregation at 5 uM incubated for 4 min prior to arachidonic acid-induction measured for 5.5 min by turbidometric analysis. Format: functional, cell-free.
Test [30] relates to Platelet. As to the kind of experiment: Antiaggregating activity in Homo sapiens (human) platelet rich plasma assessed as inhibition of arachidonic acid-induced platelet aggregation at 50 uM incubated for 4 min prior to arachidonic acid-induction measured for 5.5 min by turbidometric analysis. Format: functional, cell-free.
Test [31] has as its system Platelet. As to the kind of experiment: Antiaggregating activity in Homo sapiens (human) platelet rich plasma assessed as inhibition of collagen-induced platelet aggregation at 50 uM incubated for 4 min prior to collagen-induction measured for 5.5 min by turbidometric analysis. The class given is functional, cell-free.
Test [32] is described as follows: Antiaggregating activity in Homo sapiens (human) platelet rich plasma assessed as adrenaline-induced platelet aggregation at 10 uM incubated for 4 min prior to adrenaline-induction measured for 5.5 min by turbidometric analysis (reference value: 65 to 100%). Format: functional.
A short description of test [33]: Antiaggregating activity in Homo sapiens (human) platelet rich plasma assessed as ADP-induced platelet aggregation at 10 uM incubated for 4 min prior to ADP-induction measured for 5.5 min by turbidometric analysis (reference value: 54 to 88%). Format: functional.
Test [34] can be described thus: Antiaggregating activity in Homo sapiens (human) platelet rich plasma assessed as collagen-induced platelet aggregation at 10 uM incubated for 4 min prior to collagen-induction measured for 5.5 min by turbidometric analysis (reference value: 50 to 98%). The class given is functional.
The nature of test [35]: Antiaggregating activity in Homo sapiens (human) platelet rich plasma assessed as ristocetin-induced platelet aggregation at 10 uM incubated for 4 min prior to ristocetin-induction measured for 5.5 min by turbidometric analysis (reference value: 65 to 99%). Format: functional.
A short description of test [36]: Antiaggregating activity in Homo sapiens (human) platelet rich plasma assessed as arachidonic acid-induced platelet aggregation at 10 uM incubated for 4 min prior to arachidonic acid-induction measured for 5.5 min by turbidometric analysis (reference value: 55 to 100%). The class given is functional.
Test [37] concerns Platelet. As to the kind of experiment: Antiaggregating activity in Homo sapiens (human) platelet rich plasma assessed as inhibition of ADP-induced platelet aggregation at 50 uM incubated for 4 min prior to ADP-induction measured for 5.5 min by turbidometric analysis. Format: functional, cell-free.
Test [38] is described as follows: Antiaggregating activity in Homo sapiens (human) platelet rich plasma assessed as ristocetin-induced platelet aggregation at 50 uM incubated for 4 min prior to ristocetin-induction measured for 5.5 min by turbidometric analysis (reference value: 65 to 99%). The class given is functional.
The subject of test [39] is Platelet. Put plainly: Antiaggregating activity in Homo sapiens (human) platelet rich plasma assessed as inhibition of adrenaline-induced platelet aggregation at 50 uM incubated for 4 min prior to adrenaline-induction measured for 5.5 min by turbidometric analysis. Format: functional, cell-free.

Molecules are shown by their SMILES. Activity calls are given as the source filed them. No cut-off for these calls is given here.

For the molecule `O=C(c1ccc[n+](Cc2ccccc2)c1)N1CCN(C(=O)c2ccc[n+](Cc3ccccc3)c2)CC1.[Cl-].[Cl-]`, the inhibition entry with Platelet [1], with Platelet [2], in the test on Platelet [5], in the test on Platelet [6], with Platelet [9] and in the test on Platelet [11] was “Active” in each case. In addition, the inhibition result with Platelet [12] and in the test with Platelet [13] was “Active” in each case. Moreover, the Activity is on record as 71% in test [3]; 66% in test [4]; 28% in test [7]; 79% in [8]; 80% in test [10]; 25% in [14]. Further, in [15], the Activity is 73%.
In the case of `O=C(c1ccc[n+](Cc2ccc(C[n+]3cccc(C(=O)N4CCN(c5ccccc5Cl)CC4)c3)cc2)c1)N1CCN(c2ccccc2Cl)CC1.[Br-].[Br-]`, the Activity in test [16] was 91%; in [17], 21%; in [18], 26%; in test [19], 84%; in test [20], 22%; in test [22] it was 51%. The Activity in [23] was 79%; in test [24], 40%; in [25], 16%; in test [26], 13%; in test [28], 65%; in test [15], 78%. The inhibition entry with Platelet [21], in the test with Platelet [27] and in the test with Platelet [29] was “Active” in each case.
Take `O=C(c1ccc[n+](Cc2ccc(C[n+]3cccc(C(=O)N4CCN(c5ncccn5)CC4)c3)cc2)c1)N1CCN(c2ncccn2)CC1.[Br-].[Br-]`: the inhibition result with Platelet [30], in the test on Platelet [31], in the test on Platelet [37] and in the test with Platelet [39] was “Active” in each case. Also, the Activity in [16] is recorded as 70%; in test [32], 28%; in test [33], 71%; in [34] it was 82%; in [35] it was 82%; in test [19], 73%. Besides, the Activity in test [20] is reported as 73%; in test [36], 71%; in [24], 70%; in test [38], 73%; in test [15] it was 78%.
